Assays:
[1] = screening of GSH neutralizing agents in GSH-spiked solutions before imine reduction; type: biochemical; settings: for compatibility with the catalytic systems: solutions with or without Sav isoform, with or without 2.5 mmol/l GSH; for efficacy as GSH neutralizing agent: solutions spiked with 2.5 mmol/l GSH, incubated with agent before adding Ir-catalyst, reaction 2 days
Protocol: Michael acceptors and oxidizing agents known to react with GSH were selected to yield the corresponding thioether and disulfide, respectively. The following Michael acceptors were tested: maleinimide (Malln), 2-bromo-1-phenylethanone (BrPheOne), phenyl-vinylsulfone (PheViSul) and 3-Phenyl-2-propynenitrile (PhePropNit). The following oxidizing agents were selected: oxone (Ox), 1,4-benzoquinone (BQ), K3[Fe(CN)6] Fe^3+, and diamide (DiAm) (figure 2). For this purpose, solutions either with or without a Sav isoform were spiked with 2.5 mmol/l GSH and incubated overnight in presence of different concentrations of a particular GSH neutralizing agent before adding the Ir-catalyst. The reactions were initiated by addition of the imine substrate and run for 2 days (see Table 2).
An equimolar amount has no benefit on the reaction whereas four equivalents led to a decrease in conversion and enantioselectivity in the case of the S112K mutant. • 4) Despite the fact that H2O2 is commonly used to oxidize GSH, Ox was favoured for this purpose. […] Increasing the concentration of the GSH neutralizing agents leads to less consistent results. The outcome of the reaction depends on the Sav-mutant (if any) is used. […] A similar behaviour is observed with BrPheOne when no Sav or the S112K mutant was present.

[2] = system: [Cp*Ir(biot-p-L)Cl] c S112A Sav (streptavidin variant S112A, SEQ ID NO 1); settings: 2.5 mM GSH; substrate 10 mM; purified Sav; RT, 48 h
Protocol: (§1) Initial experiments were performed using 50 µmol/l [Cp*Ir(biot-p-L)Cl], 100 µmol/l biotin binding sites (i.e. 25 µmol/l tetrameric Sav), 1 M HCO2Na in MOPS buffer ([…], pH 7) (see scheme 1). For comparison purposes, the imine reduction was performed with [Cp*Ir(biot-p-L)Cl]; [Cp*Ir(biot-p-L)Cl] c S112A Sav and [Cp*Ir(biot-p-L)Cl] c S112K Sav, cf. scheme 1.
(§2) Without wishing to be bound by theory, the inventors speculate that oxidizing GSH or derivatizing its thiol function could -at least partially- prevent inhibition of the hybrid catalysts.

[3] = system: [Cp*Ir(biot-p-L)Cl] c S112K Sav (streptavidin variant S112K, SEQ ID NO 2); settings: 2.5 mM GSH; substrate 10 mM; purified Sav; RT, 48 h
Protocol: as §1, §2

[4] = system: living cells, including E. coli; settings: cited from earlier work
[5] = system: [Cp*Ir(biot-p-L)Cl] c S112A Sav ATHase (streptavidin variant S112A, SEQ ID NO 1); settings: substrate not given, taken as the imine (salsolidine precursor); cited from earlier work
[6] = system: [Cp*Ir(biot-p-L)Cl] c S112K Sav ATHase (streptavidin variant S112K, SEQ ID NO 2); settings: substrate not given, taken as the imine (salsolidine precursor); cited from earlier work

Compound	compatibility with the catalytic systems [1]	efficacy as GSH neutralizing agent [1]	also measured
O=C1C=CC(=O)N1 [Malln, maleinimide]	limited compatibility	–	–
N[C@@H](CCC(=O)N[C@@H](CS)C(=O)NCC(=O)O)C(=O)O [GSH, glutathione]	–	–	inhibition of reduction of the salsolidine precursor [2]: no activity; inhibition of reduction of the salsolidine precursor [3]: no activity
oxone	–	efficacy is most pronounced with four equivalents vs. GSH	–
CN(C)C(=O)/N=N/C(=O)N(C)C [DiAm, diamide]	fully compatible with the artificial metalloenzymes	most effective GSH neutralizing agents	compatibility with living cells [4]: causing neither lysis nor death
N#CC#Cc1ccccc1 [PhePropNit, 3-Phenyl-2-propynenitrile]	–	most effective when applied at a ratio PhePropNit/GSH 2:1	–
O=C(CBr)c1ccccc1 [BrPheOne, 2-bromo-1-phenylethanone]	–	most effective GSH neutralizing agents	–
O=C1C=CC(=O)C=C1 [BQ, 1,4-benzoquinone]	not compatible with any of the three catalytic systems	–	–
COc1cc2c(cc1OC)C(C)=NCC2 [salsolidine precursor, 1-methyl-6,7-dimethoxy-3,4-dihydroisoquinoline]	–	–	kcat [5]: 0.19 s⁻¹; kcat [6]: 0.0433 s⁻¹
C=CS(=O)(=O)c1ccccc1 [PheViSul, phenyl-vinylsulfone]	does not affect the free Ir-complex	most effective GSH neutralizing agents	–

Source: EP2952497A1, “Method for neutralizing detrimental effects of thiolbearing compounds on metal catalysts” (Universität Basel, priority 2014, dated 2015)
